Calls of active or inactive are those of the source. A value given as a limit tells only on which side of the number the result lay.

The target of assay [1] is T1, High affinity choline transporter 1 (Homo sapiens, UniProt Q9GZV3).
T1 sequence (Q9GZV3 whole entry): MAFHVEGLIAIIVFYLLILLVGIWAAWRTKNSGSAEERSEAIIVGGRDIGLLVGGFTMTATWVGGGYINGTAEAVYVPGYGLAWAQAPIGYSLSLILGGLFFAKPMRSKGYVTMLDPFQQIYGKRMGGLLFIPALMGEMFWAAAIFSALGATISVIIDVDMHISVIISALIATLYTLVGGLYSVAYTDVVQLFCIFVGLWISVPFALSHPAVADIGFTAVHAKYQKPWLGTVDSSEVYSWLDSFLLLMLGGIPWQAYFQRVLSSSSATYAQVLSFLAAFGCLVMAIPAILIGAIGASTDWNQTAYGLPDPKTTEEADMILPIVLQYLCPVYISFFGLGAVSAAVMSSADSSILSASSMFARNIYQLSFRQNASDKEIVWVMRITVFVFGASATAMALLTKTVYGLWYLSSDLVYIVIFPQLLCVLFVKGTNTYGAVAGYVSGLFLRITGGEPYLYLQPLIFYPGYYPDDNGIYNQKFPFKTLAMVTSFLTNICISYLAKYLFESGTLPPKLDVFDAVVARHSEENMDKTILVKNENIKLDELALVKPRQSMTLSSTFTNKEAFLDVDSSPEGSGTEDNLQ
The experiment in a line: human choline transporter blockers, potency – cell-based, 5-point CRC, membrane potential dye, dose response (AID 504840). It counts as functional.

Assay [2] addresses T1, High affinity choline transporter 1. The experiment in a line: human choline transporter blockers, potency – cell-based, 10-point CRC, membrane potential dye, dose response (AID 588401).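 Note: membrane potential dye fluorescence of choline-evoked depolarization via CHT.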 It is filed as functional.
For assay [3] the target is unchanged. Put plainly: human choline transporter potentiators, potency – cell-based, 10-point CRC, membrane potential dye, dose response (AID 602376). It is filed as functional.
The nature of assay [4]: Luminescence Cell-Based Dose Confirmation HTS to Identify Inhibitors of Platelet Dense Granule Release. [Related pubchem assays: 1663 (Primary HTS), 1678 (Summary of Project)]. It counts as functional.
Assay [5] addresses Luciferin 4-monooxygenase (Photinus pyralis, UniProt P08659). Put plainly: inhibition of purified Photinus pyralis luciferase – biochemical, luminescence, dose response (AID 1891).
Assay [6] addresses Potassium voltage-gated channel subfamily KQT member 2 (Rattus norvegicus, UniProt O88943). Put plainly: blockers of KCNQ2 channel current – cell-based, automated electrophysiology, set II, rat KCNQ2, dose response (AID 588637). It is filed as functional.
For assay [7], the target named is Melanin-concentrating hormone receptor 1 (Homo sapiens, UniProt Q99705). The experiment in a line: Late-stage fluorescence-based counterscreen for antagonists of the G-protein coupled receptor 7 (GPR7): cell-based dose response assay to identify antagonists of the melanin-concentrating hormone receptor 1 (MCHR1) Set 5. It counts as functional.
Sequence of Melanin-concentrating hormone receptor 1 (Q99705 whole entry): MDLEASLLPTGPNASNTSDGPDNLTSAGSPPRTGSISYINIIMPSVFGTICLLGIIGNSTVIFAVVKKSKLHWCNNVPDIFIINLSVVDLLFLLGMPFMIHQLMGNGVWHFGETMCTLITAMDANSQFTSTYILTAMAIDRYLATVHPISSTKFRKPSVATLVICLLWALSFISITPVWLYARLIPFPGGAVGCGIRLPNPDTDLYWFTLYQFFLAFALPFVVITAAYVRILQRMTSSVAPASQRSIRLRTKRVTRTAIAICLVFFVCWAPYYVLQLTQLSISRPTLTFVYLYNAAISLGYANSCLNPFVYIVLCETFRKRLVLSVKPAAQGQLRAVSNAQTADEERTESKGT
Assay [8] concerns the target Protein Wnt-3a (Mus musculus, UniProt P27467). Put plainly: antagonism of Wnt3a pathway luciferase reporter – Wnt-LIGHT cells, luminescence, selectivity assay for Gli-SUFU antagonist project, dose response (AID 651570).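 Note: Wnt-LIGHT reporter cells stimulated with conditioned medium from Wnt3a-producing cells.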 It counts as functional. The settings on record: read-out: IC50_Mean.
Assay [9] is described as follows: NIH3T3 cell viability loss – ATP luminescence, mouse fibroblasts, counter-screen, dose response (AID 2010).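 Note: cells exposed to compound for about 90 hours before reading.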 It is filed as functional, cell-based.
A short description of assay [10]: Trypanosoma cruzi growth suppression in host cells – NIH3T3 host cells, beta-gal luminescence, confirmation (AID 2044).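 Note: intracellular parasites grown in NIH/3T3 mouse fibroblasts as host cells; luminescent beta-galactosidase reporter signal from transgenic T. cruzi replicating inside host cells; inhibitors lower the luminescence signal.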 It is filed as functional, cell-based.
Assay [11] has as its target T2, Apoptotic protease-activating factor 1 (Homo sapiens, UniProt O14727).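 Note: caspase-3 cleavage of fluorogenic Rh110 DEVD substrate downstream of apoptosome activation.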
T2 sequence (O14727 whole entry): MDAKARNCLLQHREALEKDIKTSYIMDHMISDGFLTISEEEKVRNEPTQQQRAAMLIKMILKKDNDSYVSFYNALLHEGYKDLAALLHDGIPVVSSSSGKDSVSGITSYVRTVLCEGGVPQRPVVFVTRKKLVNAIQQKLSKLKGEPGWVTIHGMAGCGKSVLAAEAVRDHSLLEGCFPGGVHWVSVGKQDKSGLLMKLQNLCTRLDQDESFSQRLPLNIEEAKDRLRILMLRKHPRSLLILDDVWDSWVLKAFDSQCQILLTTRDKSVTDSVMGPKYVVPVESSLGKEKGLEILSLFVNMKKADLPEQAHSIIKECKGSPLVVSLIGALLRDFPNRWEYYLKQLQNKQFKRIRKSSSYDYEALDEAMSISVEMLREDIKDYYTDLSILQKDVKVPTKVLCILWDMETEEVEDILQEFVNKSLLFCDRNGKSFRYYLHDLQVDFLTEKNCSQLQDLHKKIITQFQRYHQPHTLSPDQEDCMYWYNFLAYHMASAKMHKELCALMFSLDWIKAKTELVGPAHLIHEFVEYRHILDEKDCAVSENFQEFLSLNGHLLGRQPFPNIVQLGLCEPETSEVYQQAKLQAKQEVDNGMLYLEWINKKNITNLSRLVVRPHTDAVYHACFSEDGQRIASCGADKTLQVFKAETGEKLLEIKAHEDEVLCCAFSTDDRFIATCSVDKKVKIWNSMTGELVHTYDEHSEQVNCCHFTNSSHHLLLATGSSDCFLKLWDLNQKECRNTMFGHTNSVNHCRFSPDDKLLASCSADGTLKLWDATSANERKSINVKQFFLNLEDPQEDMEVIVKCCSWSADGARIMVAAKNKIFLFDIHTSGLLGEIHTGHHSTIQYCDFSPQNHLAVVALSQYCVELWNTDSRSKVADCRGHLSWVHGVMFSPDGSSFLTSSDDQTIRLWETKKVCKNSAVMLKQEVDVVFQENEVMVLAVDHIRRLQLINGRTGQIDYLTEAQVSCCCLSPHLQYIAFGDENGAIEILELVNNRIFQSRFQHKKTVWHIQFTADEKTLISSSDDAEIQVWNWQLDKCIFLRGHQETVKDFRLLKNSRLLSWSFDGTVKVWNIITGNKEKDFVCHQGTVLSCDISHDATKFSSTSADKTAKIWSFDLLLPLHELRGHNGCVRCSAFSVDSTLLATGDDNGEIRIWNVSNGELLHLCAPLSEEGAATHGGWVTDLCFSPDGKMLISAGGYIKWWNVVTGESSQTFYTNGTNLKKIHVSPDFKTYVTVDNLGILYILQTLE
Put plainly: SAR analysis of small molecule Activators of Apaf-1 in a Fluorescent assay. The settings on record: read-out: EC50_Mean. It is filed as functional.

Assay [12] concerns the target T3, Sentrin-specific protease 7 (Homo sapiens, UniProt Q9BQF6).
T3 sequence (Q9BQF6 whole entry): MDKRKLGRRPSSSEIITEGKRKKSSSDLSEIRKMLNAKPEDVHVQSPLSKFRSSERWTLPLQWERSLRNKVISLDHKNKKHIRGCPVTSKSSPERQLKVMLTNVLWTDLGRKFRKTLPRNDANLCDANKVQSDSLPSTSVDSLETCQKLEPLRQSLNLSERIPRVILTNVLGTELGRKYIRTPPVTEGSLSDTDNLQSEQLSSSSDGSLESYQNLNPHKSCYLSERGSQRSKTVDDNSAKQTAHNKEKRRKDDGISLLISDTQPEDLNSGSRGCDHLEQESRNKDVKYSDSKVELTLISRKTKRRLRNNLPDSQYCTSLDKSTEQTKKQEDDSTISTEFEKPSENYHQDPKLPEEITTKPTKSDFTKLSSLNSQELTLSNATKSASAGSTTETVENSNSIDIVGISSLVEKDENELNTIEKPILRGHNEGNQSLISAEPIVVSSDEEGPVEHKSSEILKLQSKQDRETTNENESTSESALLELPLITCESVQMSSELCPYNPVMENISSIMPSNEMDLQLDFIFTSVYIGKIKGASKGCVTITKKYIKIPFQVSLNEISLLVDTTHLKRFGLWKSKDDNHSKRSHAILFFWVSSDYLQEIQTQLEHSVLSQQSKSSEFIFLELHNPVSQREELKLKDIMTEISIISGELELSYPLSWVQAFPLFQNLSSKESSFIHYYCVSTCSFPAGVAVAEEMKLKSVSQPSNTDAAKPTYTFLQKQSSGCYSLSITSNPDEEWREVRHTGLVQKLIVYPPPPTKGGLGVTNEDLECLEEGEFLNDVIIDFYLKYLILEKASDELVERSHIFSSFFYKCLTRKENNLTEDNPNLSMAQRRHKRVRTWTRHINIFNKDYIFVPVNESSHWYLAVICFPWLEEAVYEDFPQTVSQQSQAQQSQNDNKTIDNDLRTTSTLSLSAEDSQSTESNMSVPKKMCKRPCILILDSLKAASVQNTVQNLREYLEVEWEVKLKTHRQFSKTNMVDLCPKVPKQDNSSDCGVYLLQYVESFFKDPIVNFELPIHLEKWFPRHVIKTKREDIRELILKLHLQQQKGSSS
The experiment in a line: inhibition of human SENP7 cleavage activity – biochemical, luminescence, SAR follow-up (AID 504497). It is filed as functional.

For assay [13], the target named is T4, Caspase-3 (Homo sapiens, UniProt P42574).
T4 sequence (P42574 whole entry): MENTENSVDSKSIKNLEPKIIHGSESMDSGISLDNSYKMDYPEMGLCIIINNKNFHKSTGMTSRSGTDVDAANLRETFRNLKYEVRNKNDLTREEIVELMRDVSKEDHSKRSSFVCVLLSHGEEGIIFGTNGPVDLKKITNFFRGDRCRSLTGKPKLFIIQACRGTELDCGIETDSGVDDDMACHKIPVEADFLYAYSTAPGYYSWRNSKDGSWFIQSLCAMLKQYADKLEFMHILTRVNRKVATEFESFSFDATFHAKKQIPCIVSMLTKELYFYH
Put plainly: SAR Analysis of small molecule inhibitors of Sentrin-specific proteases (SENPs) using a Caspase-3 Selectivity assay. [Related pubchem assays (depositor defined):AID2540, AID2599, AID434973, AID489001]. It is filed as functional.

The target of assay [14] is T5, Sentrin-specific protease 8 (Homo sapiens, UniProt Q96LD8).
T5 sequence (Q96LD8 whole entry): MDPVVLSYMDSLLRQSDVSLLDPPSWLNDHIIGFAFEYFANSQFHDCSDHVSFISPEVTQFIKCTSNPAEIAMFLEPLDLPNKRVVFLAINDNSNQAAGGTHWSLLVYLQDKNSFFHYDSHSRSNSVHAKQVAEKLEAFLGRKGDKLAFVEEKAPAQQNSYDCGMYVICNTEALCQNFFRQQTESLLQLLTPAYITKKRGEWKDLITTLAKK
Put plainly: inhibition of human SENP8 cleavage activity – biochemical, luminescence, SAR follow-up (AID 504501). It is filed as functional.

Assay [15] addresses T6, Sentrin-specific protease 6 (Homo sapiens, UniProt Q9GZR1).
T6 sequence (Q9GZR1 whole entry): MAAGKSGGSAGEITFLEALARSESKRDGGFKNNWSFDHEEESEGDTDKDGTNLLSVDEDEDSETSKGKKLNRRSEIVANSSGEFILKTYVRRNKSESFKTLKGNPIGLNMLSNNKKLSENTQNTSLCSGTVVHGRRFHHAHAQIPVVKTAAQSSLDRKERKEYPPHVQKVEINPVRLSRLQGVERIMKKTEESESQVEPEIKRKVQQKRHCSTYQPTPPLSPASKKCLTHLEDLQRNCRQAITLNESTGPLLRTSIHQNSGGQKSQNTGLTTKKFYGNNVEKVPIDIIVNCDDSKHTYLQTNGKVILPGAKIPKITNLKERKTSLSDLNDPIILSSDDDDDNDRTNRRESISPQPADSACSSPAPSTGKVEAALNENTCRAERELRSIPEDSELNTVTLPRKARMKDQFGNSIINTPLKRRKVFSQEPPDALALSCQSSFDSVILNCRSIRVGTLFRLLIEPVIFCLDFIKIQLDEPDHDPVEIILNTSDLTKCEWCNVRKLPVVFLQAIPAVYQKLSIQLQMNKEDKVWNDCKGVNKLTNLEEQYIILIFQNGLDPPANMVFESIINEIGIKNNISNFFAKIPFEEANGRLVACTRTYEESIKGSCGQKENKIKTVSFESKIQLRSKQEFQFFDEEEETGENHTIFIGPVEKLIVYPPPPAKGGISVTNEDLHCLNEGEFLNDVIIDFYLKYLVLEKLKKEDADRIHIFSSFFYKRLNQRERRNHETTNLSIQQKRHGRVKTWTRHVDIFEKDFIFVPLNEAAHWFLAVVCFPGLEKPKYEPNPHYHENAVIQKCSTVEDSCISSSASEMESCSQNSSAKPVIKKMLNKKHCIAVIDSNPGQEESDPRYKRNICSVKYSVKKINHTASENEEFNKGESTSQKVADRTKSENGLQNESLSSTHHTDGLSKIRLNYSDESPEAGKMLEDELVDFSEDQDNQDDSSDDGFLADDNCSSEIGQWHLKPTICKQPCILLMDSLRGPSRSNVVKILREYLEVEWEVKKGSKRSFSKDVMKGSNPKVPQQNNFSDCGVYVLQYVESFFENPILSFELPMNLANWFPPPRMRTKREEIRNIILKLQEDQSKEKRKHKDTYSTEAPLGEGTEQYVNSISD
The experiment in a line: SAR Analysis of small molecule inhibitors of Sentrin-specific protease 6 (SENP6) using a Luminescent assay. [Related pubchem assays (depositor defined):AID2582, AID2599]. It counts as functional.

Sequence of Luciferin 4-monooxygenase (P08659 whole entry): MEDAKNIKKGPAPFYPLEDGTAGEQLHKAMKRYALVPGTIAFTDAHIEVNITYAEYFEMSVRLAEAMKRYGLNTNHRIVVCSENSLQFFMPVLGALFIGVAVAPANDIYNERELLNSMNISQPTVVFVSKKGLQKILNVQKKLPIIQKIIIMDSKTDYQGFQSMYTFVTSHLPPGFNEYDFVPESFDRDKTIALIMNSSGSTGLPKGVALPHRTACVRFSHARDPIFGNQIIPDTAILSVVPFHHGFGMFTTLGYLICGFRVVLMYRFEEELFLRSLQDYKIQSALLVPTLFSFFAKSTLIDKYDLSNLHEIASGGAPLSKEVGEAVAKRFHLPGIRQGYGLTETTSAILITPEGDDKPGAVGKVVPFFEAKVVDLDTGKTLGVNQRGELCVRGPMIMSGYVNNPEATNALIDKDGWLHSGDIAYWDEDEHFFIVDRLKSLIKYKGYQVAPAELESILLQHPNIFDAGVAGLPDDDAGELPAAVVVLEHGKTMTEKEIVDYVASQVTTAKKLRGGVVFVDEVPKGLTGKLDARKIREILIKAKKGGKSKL
Sequence of Protein Wnt-3a (P27467 whole entry): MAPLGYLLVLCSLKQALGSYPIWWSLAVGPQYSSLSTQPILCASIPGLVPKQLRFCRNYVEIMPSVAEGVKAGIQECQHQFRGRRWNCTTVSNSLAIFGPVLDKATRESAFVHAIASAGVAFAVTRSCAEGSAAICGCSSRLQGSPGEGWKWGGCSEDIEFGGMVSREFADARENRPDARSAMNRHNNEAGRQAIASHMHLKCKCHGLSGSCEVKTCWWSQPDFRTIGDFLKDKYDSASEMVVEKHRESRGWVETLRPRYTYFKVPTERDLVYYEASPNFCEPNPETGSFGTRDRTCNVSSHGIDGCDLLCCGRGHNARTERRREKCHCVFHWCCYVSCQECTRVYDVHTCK
Sequence of Potassium voltage-gated channel subfamily KQT member 2 (O88943 whole entry): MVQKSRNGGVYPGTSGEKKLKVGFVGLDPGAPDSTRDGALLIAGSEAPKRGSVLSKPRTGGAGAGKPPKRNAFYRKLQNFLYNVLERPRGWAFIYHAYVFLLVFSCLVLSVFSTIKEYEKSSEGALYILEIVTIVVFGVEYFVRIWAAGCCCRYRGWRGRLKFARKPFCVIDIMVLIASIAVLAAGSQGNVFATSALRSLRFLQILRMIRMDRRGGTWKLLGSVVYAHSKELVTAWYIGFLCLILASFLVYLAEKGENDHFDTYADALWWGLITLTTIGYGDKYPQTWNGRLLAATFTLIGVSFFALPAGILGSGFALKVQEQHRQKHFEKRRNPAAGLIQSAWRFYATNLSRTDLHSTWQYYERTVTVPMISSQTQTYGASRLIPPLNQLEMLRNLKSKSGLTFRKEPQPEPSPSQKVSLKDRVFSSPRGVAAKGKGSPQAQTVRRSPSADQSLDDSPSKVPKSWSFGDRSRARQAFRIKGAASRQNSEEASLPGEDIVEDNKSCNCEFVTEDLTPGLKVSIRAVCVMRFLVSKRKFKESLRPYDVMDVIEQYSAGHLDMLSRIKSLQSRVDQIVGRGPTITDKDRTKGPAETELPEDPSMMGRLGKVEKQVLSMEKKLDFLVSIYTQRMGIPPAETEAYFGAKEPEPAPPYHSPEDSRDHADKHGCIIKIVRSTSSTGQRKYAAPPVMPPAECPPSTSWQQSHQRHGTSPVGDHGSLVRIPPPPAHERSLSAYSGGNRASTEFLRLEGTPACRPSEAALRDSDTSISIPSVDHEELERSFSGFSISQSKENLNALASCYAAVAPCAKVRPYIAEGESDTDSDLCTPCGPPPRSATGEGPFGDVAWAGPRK

With `CCN1CCCC1CNC(=O)c1ccc2c(c1)N(Cc1cccc(Cl)c1)C(=O)c1ccccc1S2(=O)=O` (stereo not drawn), the figures for the IC50 in assay [1] and in [2] were 8.64 µM (active) and 4.22 µM (active), respectively.
Take `C=CCOc1ccc(Br)cc1CNCCCN1CCOCC1`: in assay [3], the EC50 is 14.2 µM (active).
Consider `CCNC(=O)[C@H]1O[C@@H](n2cnc3c(N)nc(NCCc4ccc(CCC(=O)O)cc4)nc32)[C@H](O)[C@@H]1O`, for which the figures for the IC50 in assay [1] and in [2] were 0.915 µM (active) and 0.807 µM (active), respectively. In addition, the EC50 in assay [4] was < 0.088 µM (active); in assay [5], > 112 µM (not active).
For `CC1CCN(C(=O)Cn2c(=O)n(Cc3ccc4c(c3)OCO4)c(=O)c3ccccc32)CC1`, the IC50 in [6] is 3.11 µM (active).
With `COc1ccc(Oc2c(Cl)cnn(Cc3cccc4ccccc34)c2=O)cc1F`, the IC50 in assay [7] was 2.47 µM (active).
As to `COc1ccc(S(=O)(=O)N2c3ccccc3OCC2C)cc1` (stereo not drawn), the EC50 in assay [3] was 13.9 µM (active).
Take `N=c1c2c(n(Cc3ccc(F)cc3)c3c1CCC3)CCCC2`: in assay [8], the IC50 was 13.8 µM (active). For the same molecule, the EC50 in assay [9] was > 60 µM (not active); in assay [10], 0.639 µM (active).
With `Cc1cc(NC(=O)C2CC(c3ccc(F)cc3)=NO2)n(-c2ccccc2)n1` (stereo not drawn), the EC50 in assay [11] is > 100 µM (inactive).
For the molecule `COc1cc(C(=O)Nc2ccccc2F)ccc1OCc1ccc(Cl)cc1`, the IC50 in assay [12], in assay [13], in [14] and in assay [15] was > 99 µM (inactive) in each case.

The values are drawn from ChEMBL document CHEMBL1201862, “PubChem BioAssay data set” (2004).
